pEC50, pIC50: −log10 of the molar value.
Experiments:
AR / CBP ternary complex = assay: Ternary complex formation assay (sandwich ELISA, AR capture / CBP detection) in VCaP cell lysates; type: cell-based; settings: 1.5 hours treatment, sandwich ELISA (AR capture, CBP or p300 detection)
Method in brief: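 VCaP cells (50K/well, 5% charcoal-stripped FBS, ≥3 days) treated with bifunctional compound for 1.5 h, then lysed 30 min at 4 °C. AR captured on anti-AR (AR 441) plates; bound CBP or p300 detected by rabbit mAb plus HRP secondary. QuantaRed chemifluorescence read at ex 570/em 585, immediately and at 5 and 15 min.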

VCaP cells = assay: VCaP growth inhibition assay; type: cell-based; settings: 30 pM R1881, 9 days, CTG
Method in brief: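 VCaP cells in phenol red-free DMEM/5% CSS, pre-incubated 72 h, then stimulated with R1881 (final 30 pM) and treated with 1:5 serial dilutions (final 100 nM to 10 fM) for 9 days at 37 °C. Viability by CellTiter-Glo luminescence; IC50 from 4-parameter logistic fit of RLU vs concentration.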

Question: With `CC(=O)N1CCc2c(c(N3CCCc4cc(-c5cnn(C)c5)c(C(F)F)cc43)nn2C2CCN(C(=O)C3CCN(c4ccc(C(=O)NC5C(C)(C)C(Oc6ccc(C#N)c(Cl)c6)C5(C)C)nn4)CC3)CC2)C1` (stereo not drawn) [Compound 114, 6-[4-[4-[5-acetyl-3-[7-(difluoromethyl)-6-(1-methylpyrazol-4-yl)-3,4-dihydro-2H-quinolin-1-yl]-6,7-dihydro-4H-pyrazolo[4,3-c]pyridin-1-yl]piperidine-1-carbonyl]-1-piperidyl]-N-[3-(3-chloro-4-cyano-phenoxy)-2,2,4,4-tetramethyl-cyclobutyl]pyridazine-3-carboxamide] as the compound, how does the pEC50 (AR / CBP ternary complex) read?
Answer: > 9.00

Question: And the pIC50 (VCaP cells)?
Answer: ≥ 10.00

Question: `CC(=O)N1CCc2c(c(N3CCCc4cc(-c5cnn(C)c5)c(C(F)F)cc43)nn2C2CCC(CN3CCN(c4ncc(C(=O)NC5C(C)(C)C(Oc6ccc(C#N)c(Cl)c6)C5(C)C)cn4)CC3)CC2)C1` (stereo not drawn) [Compound 318, 2-[4-[[4-[5-acetyl-3-[7-(difluoromethyl)-6-(1-methylpyrazol-4-yl)-3,4-dihydro-2H-quinolin-1-yl]-6,7-dihydro-4H-pyrazolo[4,3-c]pyridin-1-yl]cyclohexyl]methyl]piperazin-1-yl]-N-[3-(3-chloro-4-cyano-phenoxy)-2,2,4,4-tetramethyl-cyclobutyl]pyrimidine-5-carboxamide] was tested. Which pEC50 (AR / CBP ternary complex) did it give?
Answer: > 9.00

Question: What about the pIC50 (VCaP cells) of the same compound?
Answer: ≥ 10.00

Question: With `CC(=O)N1CCc2c(c(N3CCCc4cc(-c5cnn(C)c5)c(C(F)F)cc43)nn2C2CCN(CC3C(C)CN(c4ncc(C(=O)NC5C(C)(C)C(Oc6ccc(C#N)c(C)c6)C5(C)C)cn4)CC3C)CC2)C1` (stereo not drawn) [Compound 462, 2-[4-[[4-[5-acetyl-3-[7-(difluoromethyl)-6-(1-methylpyrazol-4-yl)-3,4-dihydro-2H-quinolin-1-yl]-6,7-dihydro-4H-pyrazolo[4,3-c]pyridin-1-yl]-1-piperidyl]methyl]-3,5-dimethyl-1-piperidyl]-N-[3-(4-cyano-3-methyl-phenoxy)-2,2,4,4-tetramethyl-cyclobutyl]pyrimidine-5-carboxamide] as the compound, how does the pEC50 (AR / CBP ternary complex) read?
Answer: > 9.00

Question: What about the pIC50 (VCaP cells) of the same compound?
Answer: ≥ 10.00

Question: `CC(=O)N1CCc2c(c(N3CCCc4cnccc43)nn2C2CCN(C(=O)C3CCN(c4ncc(C(=O)NC5C(C)(C)C(Oc6ccc(C#N)c(Cl)c6)C5(C)C)cn4)CC3)CC2)C1` (stereo not drawn) [Compound 128, 2-[4-[4-[5-acetyl-3-(3,4-dihydro-2H-1,6-naphthyridin-1-yl)-6,7-dihydro-4H-pyrazolo[4,3-c]pyridin-1-yl]piperidine-1-carbonyl]-1-piperidyl]-N-[3-(3-chloro-4-cyano-phenoxy)-2,2,4,4-tetramethyl-cyclobutyl]pyrimidine-5-carboxamide] was tested. Which pEC50 (AR / CBP ternary complex) did it give?
Answer: < 7.00

Question: What about the pIC50 (VCaP cells) of the same compound?
Answer: < 7.00

Question: With `CC(=O)N1CCc2c(c(N3CCCc4cc(-c5cnn(C)c5)ccc43)nn2C2CCN(CC3CCN(c4ncc(C(=O)NC5C(C)(C)C(Oc6ccc(C#N)c(Cl)c6)C5(C)C)cn4)CC3)CC2)C1` (stereo not drawn) [Compound 24, 2-[4-[[4-[5-acetyl-3-[6-(1-methylpyrazol-4-yl)-3,4-dihydro-2H-quinolin-1-yl]-6,7-dihydro-4H-pyrazolo[4,3-c]pyridin-1-yl]-1-piperidyl]methyl]-1-piperidyl]-N-[3-(3-chloro-4-cyano-phenoxy)-2,2,4,4-tetramethyl-cyclobutyl]pyrimidine-5-carboxamide] as the compound, how does the pEC50 (AR / CBP ternary complex) read?
Answer: > 9.00

Question: And the pIC50 (VCaP cells)?
Answer: 9.00 to 10.00

Question: `CC(=O)N1CCc2c(c(N3CCCc4cc(-c5cnn(C)c5)c(C(F)F)cc43)nn2C2CC3(C2)CC2(CCN(c4ncc(C(=O)NC5C(C)(C)C(Oc6ccc(C#N)c(Cl)c6)C5(C)C)cn4)CC2)C3)C1` (stereo not drawn) [Compound 287, 2-[2-[5-acetyl-3-[7-(difluoromethyl)-6-(1-methylpyrazol-4-yl)-3,4-dihydro-2H-quinolin-1-yl]-6,7-dihydro-4H-pyrazolo[4,3-c]pyridin-1-yl]-9-azadispiro[3.1.5^6.1^4]dodecan-9-yl]-N-[3-(3-chloro-4-cyano-phenoxy)-2,2,4,4-tetramethyl-cyclobutyl]pyrimidine-5-carboxamide] was tested. Which pEC50 (AR / CBP ternary complex) did it give?
Answer: 8.00 to 9.00

Question: What about the pIC50 (VCaP cells) of the same compound?
Answer: 7.00 to 9.00

Question: Which results are given for `CC(=O)N1CCc2c(c(Nc3ccc(-c4cnn(C)c4)cc3F)nn2CCOCCN2CCN(c3ncc(C(=O)NC4C(C)(C)C(Oc5ccc(C#N)c(Cl)c5)C4(C)C)cn3)CC2)C1` (stereo not drawn) [Compound 1, 2-[4-[2-[2-[5-acetyl-3-[2-fluoro-4-(1-methylpyrazol-4-yl)anilino]-6,7-dihydro-4H-pyrazolo[4,3-c]pyridin-1-yl]ethoxy]ethyl]piperazin-1-yl]-N-[3-(3-chloro-4-cyano-phenoxy)-2,2,4,4-tetramethyl-cyclobutyl]pyrimidine-5-carboxamide]?
Answer: pEC50 (AR / CBP ternary complex): > 9.00; pIC50 (VCaP cells): 9.00 to 10.00

Question: `COc1cc(OC2C(C)(C)C(NC(=O)c3ccc(N4CCC(N5CCC(n6nc(N7CCCc8cc(-c9cnn(C)c9)c(C(F)F)cc87)c7c6CCN(C(C)=O)C7)CC5)C(F)(F)C4)cc3)C2(C)C)ccc1C#N` (stereo not drawn) [Compound 302, 4-[4-[4-[5-acetyl-3-[7-(difluoromethyl)-6-(1-methylpyrazol-4-yl)-3,4-dihydro-2H-quinolin-1-yl]-6,7-dihydro-4H-pyrazolo[4,3-c]pyridin-1-yl]-1-piperidyl]-3,3-difluoro-1-piperidyl]-N-[3-(4-cyano-3-methoxy-phenoxy)-2,2,4,4-tetramethyl-cyclobutyl]benzamide] was tested. Which pEC50 (AR / CBP ternary complex) did it give?
Answer: > 9.00

Question: What about the pIC50 (VCaP cells) of the same compound?
Answer: ≥ 10.00

Question: With `COc1cc(OC2C(C)(C)C(NC(=O)c3ccc(N4CC(N5CCC(n6nc(N7CCCc8cc(-c9cnn(C)c9)c(C(F)F)cc87)c7c6CCN(C(C)=O)C7)CC5)C4)cc3)C2(C)C)ccc1C#N` (stereo not drawn) [Compound 310, 4-[3-[4-[5-acetyl-3-[7-(difluoromethyl)-6-(1-methylpyrazol-4-yl)-3,4-dihydro-2H-quinolin-1-yl]-6,7-dihydro-4H-pyrazolo[4,3-c]pyridin-1-yl]-1-piperidyl]azetidin-1-yl]-N-[3-(4-cyano-3-methoxy-phenoxy)-2,2,4,4-tetramethyl-cyclobutyl]benzamide] as the compound, how does the pEC50 (AR / CBP ternary complex) read?
Answer: > 9.00

Question: And the pIC50 (VCaP cells)?
Answer: ≥ 10.00

Question: What does the source list for `CC(=O)N1CCc2c(c(-c3cccc4cc(-c5ccc(COc6ncc(C(=O)NC7C(C)(C)C(Oc8ccc(C#N)c(Cl)c8)C7(C)C)cn6)nc5)ncc34)nn2C2CCOCC2)C1` (stereo not drawn) [Compound 71, 2-[[5-[8-(5-acetyl-1-tetrahydropyran-4-yl-6,7-dihydro-4H-pyrazolo[4,3-c]pyridin-3-yl)-3-isoquinolyl]-2-pyridyl]methoxy]-N-[3-(3-chloro-4-cyano-phenoxy)-2,2,4,4-tetramethyl-cyclobutyl]pyrimidine-5-carboxamide]?
Answer: pEC50 (AR / CBP ternary complex): > 9.00; pIC50 (VCaP cells): 7.00 to 9.00

Question: With `Cn1cc(-c2cc3cccc(-c4cc(C5CCN(CC6CCN(c7ncc(C(=O)NC8C(C)(C)C(Oc9ccc(C#N)c(Cl)c9)C8(C)C)cn7)CC6)CC5)c5c(c4)n(C)c(=O)n5C)c3cn2)cn1` (stereo not drawn) [Compound 213, N-[3-(3-chloro-4-cyano-phenoxy)-2,2,4,4-tetramethyl-cyclobutyl]-2-[4-[[4-[1,3-dimethyl-6-[3-(1-methylpyrazol-4-yl)-8-isoquinolyl]-2-oxo-benzimidazol-4-yl]-1-piperidyl]methyl]-1-piperidyl]pyrimidine-5-carboxamide] as the compound, how does the pEC50 (AR / CBP ternary complex) read?
Answer: < 7.00

Question: And the pIC50 (VCaP cells)?
Answer: 9.00 to 10.00

Question: How did the pEC50 (AR / CBP ternary complex) turn out when `CC(=O)N1CCc2c(c(N3CCCc4cc(-c5cnn(C)c5)c(C)cc43)nn2C2CCN(C3CCC4(CC3)CN(c3ncc(C(=O)NC5C(C)(C)C(Oc6ccc(C#N)c(Cl)c6C)C5(C)C)cn3)C4)CC2)C1` (stereo not drawn) [Compound 473, 2-[7-[4-[5-acetyl-3-[7-methyl-6-(1-methylpyrazol-4-yl)-3,4-dihydro-2H-quinolin-1-yl]-6,7-dihydro-4H-pyrazolo[4,3-c]pyridin-1-yl]-1-piperidyl]-2-azaspiro[3.5]nonan-2-yl]-N-[3-(3-chloro-4-cyano-2-methyl-phenoxy)-2,2,4,4-tetramethyl-cyclobutyl]pyrimidine-5-carboxamide] was run?
Answer: > 9.00

Question: And the pIC50 (VCaP cells)?
Answer: 9.00 to 10.00

Question: Which results are given for `COc1cc(OCC(C)(C)[C@H](NC(=O)c2ccc(N3CCN(CC4CCC(n5nc(N6CCCc7cc(-c8cnn(C)c8)c(C(F)F)cc76)c6c5CCN(C(C)=O)C6)CC4)CC3)cc2)C(C)C)ccc1C#N` (stereo partly drawn) [Compound 317, 4-[4-[[4-[5-acetyl-3-[7-(difluoromethyl)-6-(1-methylpyrazol-4-yl)-3,4-dihydro-2H-quinolin-1-yl]-6,7-dihydro-4H-pyrazolo[4,3-c]pyridin-1-yl]cyclohexyl]methyl]piperazin-1-yl]-N-[(1R)-3-(4-cyano-3-methoxy-phenoxy)-1-isopropyl-2,2-dimethyl-propyl]benzamide]?
Answer: pEC50 (AR / CBP ternary complex): > 9.00; pIC50 (VCaP cells): ≥ 10.00

Question: How did the pEC50 (AR / CBP ternary complex) turn out when `CC(=O)N1CCc2c(c(N3CCCc4cc(-c5cnn(C)c5)c(C(F)F)cc43)nn2C2CCN(CC3CCN(c4ncc(C(=O)NC5C(C)(C)C(Oc6ccc(C#N)c(Cl)c6)C5(C)C)cn4)CC34CC4)CC2)C1` (stereo not drawn) [Compound 357, 2-[8-[[4-[5-acetyl-3-[7-(difluoromethyl)-6-(1-methylpyrazol-4-yl)-3,4-dihydro-2H-quinolin-1-yl]-6,7-dihydro-4H-pyrazolo[4,3-c]pyridin-1-yl]-1-piperidyl]methyl]-5-azaspiro[2.5]octan-5-yl]-N-[3-(3-chloro-4-cyano-phenoxy)-2,2,4,4-tetramethyl-cyclobutyl]pyrimidine-5-carboxamide] was run?
Answer: > 9.00

Question: What about the pIC50 (VCaP cells) of the same compound?
Answer: ≥ 10.00

Question: With `COc1cc(OC2C(C)(C)C(NC(=O)c3ccc(N4CC(OC5CCC(n6nc(N7CCCc8cc(-c9cnn(C)c9)c(C(F)F)cc87)c7c6CCN(C(C)=O)C7)CC5)C4)cc3)C2(C)C)ccc1C#N` (stereo not drawn) [Compound 342, 4-[3-[4-[5-acetyl-3-[7-(difluoromethyl)-6-(1-methylpyrazol-4-yl)-3,4-dihydro-2H-quinolin-1-yl]-6,7-dihydro-4H-pyrazolo[4,3-c]pyridin-1-yl]cyclohexoxy]azetidin-1-yl]-N-[3-(4-cyano-3-methoxy-phenoxy)-2,2,4,4-tetramethyl-cyclobutyl]benzamide] as the compound, how does the pEC50 (AR / CBP ternary complex) read?
Answer: > 9.00

Question: And the pIC50 (VCaP cells)?
Answer: 9.00 to 10.00
